According to patent US20090088364A1, “Pharmaceutical composition useful for the treatment of invasive pulmonary aspergillosis” (priority 2004, published 2009):
“Also recorded” adds a separate entry of the source.

Legend:
[1] = Survival of immunosuppressed control mice that received no spores; format: in vivo, BALB/c mice
Method: (§1) The 1 µg rMBL-treated control and IPA mice received 1 μg of rMBL in 50 μl of saline per mouse on day 1. Similarly, 3 μg rMBL-treated control and IPA mice received 3 μg of rMBL in 50 μl of saline per mouse on day 1 and 5 µg rMBL-treated control and IPA mice received 5 μg of rMBL in 50 μl of saline per mouse on day 1. The AmB-treated control and IPA mice received AmB (134.6 μg) only on day 1. The groups of untreated control and untreated IPA mice received 50 μl of saline without rMBL intranasally on day 1.
(§2) Different groups of mice were monitored for 15 days for survival and thereby their survival rate was calculated.

[2] = system: A. fumigatus; assay: Survival of immunosuppressed IPA mice monitored for 15 days; format: in vivo, BALB/c mice; details: for survival / survival rate: IPA mice
Method: For preparation of animal models of invasive pulmonary aspergillosis, BALB/c mice were divided into various experimental and control groups and subgroups as shown in Table I.
The BALB/c mice were immunosuppressed by three intradermal injections of 2.5 mg of hydrocortisone acetate (Wycort) per 20 g mouse per day 1 day before, the day of, and the day after spore challenge.
On the day of spore challenge (day 0), mice were lightly anesthesized with ether and 10^8 spores of A. fumigatus in 50 μl of sterile saline were administered intranasally in the groups of IPA mice, while 50 μl of saline alone was administered to the untreated control mice. The MBL-treated control and IPA mice received 1 μg of MBL in 50 μl of saline per mouse on day 1, and the groups of untreated control and untreated IPA mice received 50 μl of saline alone intranasally on day 1.
(§3) The survival rates of the MBL treated and untreated mice were monitored for 15 days (FIG. 1). Among the rest of the mice left in each group, two mice were sacrificed each on 4th and 7th day after fungal exposure and lung tissues were collected for histopathology and counting the colony forming units of the fungus (CFUs). For estimating the pulmonary fungal load and hyphae density of the mice, lungs were aseptically removed from each group of mice sacrificed on the 4th and 7th day, after the spore challenge. A portion of the lung tissue (10 mg) was homogenized with a mechanical homogenizer for 1 min in sterile PBS. The suspension was serially diluted 2-fold and incubated in triplicates on Sabouraud Agar (SDA) plates at 37° C. A. fumigatus colonies were counted after 24 hrs incubation and the values represent average±standard deviation of six data points (three from each dilution). The number of Colony forming units (CFUs) that appeared on the plates corresponds to the pulmonary fungal load of different groups. […] The other portion of the lung was kept in 10% formalin for histopathological studies of the lung sections.
The animal model of invasive pulmonary aspergillosis is prepared by known methods of the immunosuppression of the mice (Allen et al, 1994) followed by exposure to A. fumigatus spores. The mice were immunosuppressed by three intradermal injections of 2.5 mg of hydrocortisone acetate (Wycort) per 20 g of mouse per day one day before, the day of, and the day after spore challenge (day −1, 0, +1).
On the day of spore challenge (day 0), mice were lightly anesthesized with ether and 10^8 spores of A. fumigatus in 50 μl of sterile saline were administered intranasally in the groups of IPA mice, while 50 μl of saline alone was administered to the untreated control mice.
The administration of different concentrations of purified human rMBL (1-5 µg/mice) in saline intranasally to different groups of mice is described in Table I. The animal models of invasive pulmonary aspergillosis and their respective controls were given treatment with rMBL and amphotericin B. The amphotericin B treated mice acted as the positive control, since amphotericin B is a standard known antifungal agent.
as §1, §2

[3] = system: A. fumigatus; assay: Pulmonary fungal load (CFU counts in lung homogenate) in IPA mice; format: in vivo, BALB/c mice; details: for fungal load: description
Description: as §3
For estimating the pulmonary fungal load and hyphae density of the mice, lungs were aseptically removed from each group of mice sacrificed on the 4th and 7th day, after the spore challenge. A portion of the lung tissue (10 mg) was homogenized with a mechanical homogenizer for 1 min in sterile PBS. The suspension was serially diluted 2-fold and incubated in triplicate on Sabauraud Agar (SDA) plates at 37° C. A. fumigatus colonies were counted after 24 hrs incubation and the values represent average±standard deviation of six data points (three from each dilution). The number of Colony forming units (CFUs) that appeared on the plates corresponds to the pulmonary fungal load of different groups.

[4] = system: A. fumigatus; assay: Fungal hyphae density in lung sections (histopathology) of IPA mice; format: in vivo, BALB/c mice; details: for fungal hyphae density compared to untreated IPA mice: FIG. 3, histopathology of lung sections
Description: as §3
For visualization of the fungal hyphae in the lungs of the mice, a portion of the lungs collected from the mice sacrificed on 4th and 7th day from treated and untreated groups after spore challenge and trimmed of extraneous tissue was kept in 10% formalin for histopathological studies and stored at 4° C. The tissue sections, made using a microtome and stained with hematoxylin and eosin, were examined at the magnification of 40×.

[5] = system: A. fumigatus conidia; details: in vitro, purified human MBL; cited from earlier work
[6] = Example 6, PBS pH 7.2, treated with AmB or rMBL
[7] = Example 7, PBS pH 7.4, treated with AmB or rMBL
[8] = Example 8, TBS pH 7.6, treated with AmB or rMBL
[9] = Example 9, TBS pH 8.0, treated with AmB or rMBL
[10] = Example 6, PBS pH 7.2, rMBL 1-5 μg/mice
[11] = Example 8, TBS pH 7.6, rMBL 1-5 μg/mice
[12] = Example 9, TBS pH 8.0, rMBL 1-5 ug/mice

## C[C@@H]1[C@H](O)[C@@H](C)/C=C/C=C/C=C/C=C/C=C/C=C/C=C/[C@H](O[C@@H]2O[C@H](C)[C@@H](O)[C@H](N)[C@@H]2O)C[C@@H]2O[C@](O)(C[C@@H](O)C[C@@H](O)[C@H](O)CC[C@@H](O)C[C@@H](O)CC(=O)O[C@H]1C)C[C@H](O)[C@H]2C(=O)O [AmB, Amphotericin B, reference compound]
[1]; [6]
  survival of control mice: 100%
[1]; [7]
  survival of control mice: 100%
[1]; [8]
  survival of control mice: 100%
[1]; [9]
  survival of control mice: 100%
[2]; Example 6, PBS pH 7.2, AmB 134.6 μg on day 1
  survival: 80%
[2]; Example 7, PBS pH 7.4, AmB 134.6 μg on day 1
  survival: 80%
[2]; Example 8, TBS pH 7.6, AmB 134.6 μg on day 1
  survival: 80%
[2]; Example 9, TBS pH 8.0, AmB 134.6 μg on day 1
  survival: 80%
[2]; FIG. 1, amphotericin B (134.6 μg) on day 1
  survival rate: 80%
[3]; Example 7, PBS pH 7.4, 4th day after spore challenge, AmB 134.6 μg
  CFUs in the lung homogenates: 5.65±0.07 CFUs×10^6/gm of lung tissue
[3]; FIG. 2, amphotericin B treated IPA mice
  fungal load: 5.65±0.07 CFUs×10^6/gm of lung tissue
[4]
  fungal hyphae density compared to untreated IPA mice: decreases; also recorded: drastic decrease

## rMBL: purified human recombinant mannan-binding lectin (MBL) protein, in solution form produced by recombinant technology
[1]; [6]
  survival of control mice: 100%
[1]; [7]
  survival of control mice: 100%
[1]; [8]
  survival of control mice: 100%
[1]; [9]
  survival of control mice: 100%
[2]; Example 6, PBS pH 7.2, 1 μg rMBL intranasally day 1
  survival: 80%
[2]; Example 6, PBS pH 7.2, 3 μg rMBL intranasally day 1
  survival: 80%
[2]; Example 6, PBS pH 7.2, 5 μg rMBL intranasally day 1
  survival: 40%
[2]; [10]
  percentage of survival, change in treated IPA mice: increase
[2]; Example 7, PBS pH 7.4, 1 μg rMBL intranasally day 1
  survival: 80%
[2]; Example 7, PBS pH 7.4, 5 μg rMBL intranasally day 1
  survival: 40%
[2]; Example 7, PBS pH 7.4, rMBL 1-5 μg/mice, FIG. 1
  percentage of survival, change in treated IPA mice: increase
[2]; Example 8, TBS pH 7.6, 1 μg rMBL intranasally day 1
  survival: 80%
[2]; Example 8, TBS pH 7.6, 5 μg rMBL intranasally day 1
  survival: 40%
[2]; [11]
  percentage of survival, change in treated IPA mice: increase
[2]; Example 9, TBS pH 8.0, 1 μg rMBL intranasally day 1
  survival: 80%
[2]; Example 9, TBS pH 8.0, 5 μg rMBL intranasally day 1
  survival: 40%
[2]; [12]
  percentage of survival, change in treated IPA mice: increase
[2]; FIG. 1, 1 µg MBL intranasally on day 1
  survival rate: 80%
[2]; FIG. 1, 3 µg MBL intranasally on day 1
  survival rate: 80%
[5]
  concentration range that most effectively mediates the killing of the fungus: 1 to 5 µg/mL
[3]; [10]
  pulmonary fungal load compared to untreated IPA mice: reduction
[3]; Example 7, PBS pH 7.4, 4th day after spore challenge, 1 μg rMBL
  CFUs in the lung homogenates: 4.6±0.5 CFUs×10^6/gm of lung tissue
[3]; Example 7, PBS pH 7.4, 4th day after spore challenge, 3 μg rMBL
  CFUs in the lung homogenates: 4.2±0.4 CFUs×10^6/gm of lung tissue
[3]; Example 7, PBS pH 7.4, 4th day after spore challenge, 5 μg rMBL
  CFUs in the lung homogenates: 6.4±0.5 CFUs×10^6/gm of lung tissue
[3]; Example 7, PBS pH 7.4, rMBL 1-5 μg/mice
  pulmonary fungal load compared to untreated IPA mice: reduction
[3]; [11]
  pulmonary fungal load compared to untreated IPA mice: reduction
[3]; [12]
  pulmonary fungal load compared to untreated IPA mice: reduction
[3]; FIG. 2, 4th day after spore challenge, 3 µg MBL treated IPA mice
  pulmonary fungal load, CFU counts: 4.2±0.4 CFU counts per gram of the lung tissue
[3]; FIG. 2, 1 µg MBL treated IPA mice
  fungal load: 4.6±0.5 CFUs×10^6/gm of lung tissue
[3]; FIG. 2, 3 µg MBL treated IPA mice
  fungal load: 4.2±0.4 CFUs×10^6/gm of lung tissue
[4]; Example 6, PBS pH 7.2
  fungal hyphae density in the lungs compared to untreated IPA mice: decrease
[4]; Example 7, PBS pH 7.4, FIG. 3
  fungal hyphae density in the lungs compared to untreated IPA mice: decrease
[4]; Example 8, TBS pH 7.6
  fungal hyphae density in the lungs compared to untreated IPA mice: decrease
[4]; Example 9, TBS pH 8.0
  fungal hyphae density in the lungs compared to untreated IPA mice: decrease
[4]; listed as MBL
  fungal hyphae density compared to untreated IPA mice: decreases; also recorded: drastic decrease
